Publication PMC10341573, “Design, Synthesis, and Biological Evaluation of Novel Quinazolin-4(3H)-One-Based Histone Deacetylase 6 (HDAC6) Inhibitors for Anticancer Activity” (International Journal of Molecular Sciences, 2023)

Legend:
acetyl-H3 = test: Western blot of acetyl-H3 in MCF7 and HCT-116 cells; type: cell-based, human; settings: compared to untreated control
HDAC8 = target: T1, HDAC8 (Homo sapiens, UniProt Q9BY41); test: HDAC enzyme activity assay (fluorogenic, Boc-Lys(trifluoroacetyl)-AMC), HDAC8; type: biochemical; settings: class I HDAC8; mean ± SD, triplicate
T1 construct: codon-optimized full-length HDAC8; made in house; host or cells: E. coli BL21(DE3), pET14b vector
T1 sequence (Q9BY41 1-377): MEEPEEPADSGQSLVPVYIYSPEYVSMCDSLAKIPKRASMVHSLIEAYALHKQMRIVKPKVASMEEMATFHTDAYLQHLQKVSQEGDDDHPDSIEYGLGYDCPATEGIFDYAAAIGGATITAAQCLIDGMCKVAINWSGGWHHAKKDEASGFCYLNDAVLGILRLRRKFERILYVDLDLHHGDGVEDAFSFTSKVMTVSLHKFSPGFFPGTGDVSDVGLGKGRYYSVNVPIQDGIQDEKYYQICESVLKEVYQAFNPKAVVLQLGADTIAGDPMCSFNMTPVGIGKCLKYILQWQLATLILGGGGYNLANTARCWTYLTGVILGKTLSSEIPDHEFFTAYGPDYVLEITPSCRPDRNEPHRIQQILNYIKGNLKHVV

MCF7 and HCT-116 cells = test: Acridine orange staining and fluorescence imaging; type: cell-based, human; settings: 48 h
Source text: The control had intact nuclei, as depicted by the green fluorescence due to AO binding to dsDNA, in contrast to the apoptotic nuclei of 5c-treated cells depicted by orange fluorescence due to AO staining of ssDNA and RNA. This observation was supported by the protein expression of cleaved poly (ADP-ribose) polymerase (PARP), which represents the degree of apoptosis in cells, as shown in Figure 9B. […] Acridine orange (AO) staining can also be influenced by autophagosomal pH.

acetyl α-tubulin = test: Western blot of acetyl α-tubulin in MCF7 and HCT-116 cells; type: cell-based, human; settings: 24 h
Protocol: HDAC6 plays a crucial role in chromatin modulation and deacetylation of α-tubulin, contributing to the expression of oncogenes driving tumorigenesis. Over time, numerous studies have shown HDAC inhibitors (HDACi) as potential anticancer therapeutics. The HDAC6-inhibitory effect of compound 5c was evaluated by analyzing the protein level expression of acetyl α-tubulin in MCF7 and HCT-116 cells treated with 5c by Western blotting.
On the basis of the results obtained from the cell proliferation assay, further experiments were conducted on MCF7 and HCT-116 cells treated with compound 5c. The cells were harvested, and 0.1 × 10^6 cells were seeded in a 12-well cell culture plate and allowed to adhere properly. The cells were then incubated with 0.1 μM and 1 μM concentrations of compound 5c for 24 h. Cells were pelleted in 1× PBS and lysed using ice-cold RIPA buffer. The protein concentration of the lysate was quantified using the Bradford assay and an equal concentration of sample proteins was run on 12% SDS-PAGE and transferred onto 0.45 μm PVDF membrane (Millipore (St. Louis, MO, USA), Immobilon IPVH00010). […]

MCF7 cells [1] = test: Cell-cycle analysis by flow cytometry; type: cell-based, human
Protocol: Cell-cycle distribution analysis was carried out further to evaluate the effect of 5c on HDAC inhibition, as HDCA inhibitors are mainly known to target genes regulating the cell cycle. The 5c-treated MCF7 cells were subjected to cell-cycle analysis by flow cytometry.
Cell-cycle analysis was carried out using a cell-cycle analysis kit (Sigma-Aldrich, MAK344) according to the protocol given by the manufacturer. MCF7 cells were treated with DMSO or 0.1 μM and 1 μM concentrations of compound 5c and incubated for 48 h. Cells were then trypsinized and pelleted down. The pellets were washed with 1× cell-cycle buffer and fixed in ice-cold 70% ethanol for 1 h at 4 °C. The fixated cells were treated with ribonuclease A (RNase A) and stained with PI at room temperature for 30 min. Analysis was carried out using FlowJo 10.7.2..

MCF7 cells [2] = test: Annexin V–FITC/PI apoptosis assay by flow cytometry; type: cell-based, human; settings: MCF7, 0.1 and 1 μM, 24 h
Protocol: The efficacy of compound 5c to induce apoptosis was determined by annexin V–FITC/PI assay using flow cytometry. MCF7 cells were treated with two different concentrations of 5c as indicated, and the percentages of cells in the apoptotic and necrotic stage were analyzed, as depicted in Figure 8.
The apoptosis assay was performed using an annexin V–FITC Apoptosis detection kit (Sigma-Aldrich, APOAF) according to the manufacturer’s instructions. Cells were harvested, and 0.1 × 10^6 cells were seeded in a six-well cell culture plate and allowed to adhere followed by treatment with DMSO as the control and compound 5c at 0.1 μM and 1 μM concentrations for 24 h. The cells were trypsinized, pelleted down, and resuspended in the 1× buffer provided. The cells were stained using annexin V–FITC/PI and analyzed immediately using flow cytometry. Further analysis and plotting of graphs were conducted using Flowjo 7.6 [53].

HCT116 = test: MTT cell proliferation assay, HCT116; type: cell-based, human; settings: Homo sapiens, HCT-116; MTT, 72 h; mean ± SD, triplicate; read-out: IC50 ± SD HCT116
HDAC4 = target: T2, HDAC4 (Homo sapiens, UniProt P56524); test: HDAC enzyme activity assay (fluorogenic, Boc-Lys(trifluoroacetyl)-AMC), HDAC4; type: biochemical; settings: class IIa HDAC4; mean ± SD, triplicate
T2 construct: catalytic domain of HDAC4 (T648-T1057, full length: UniProt P56524); made in house; host or cells: E. coli BL21(DE3), pET14b vector
T2 sequence (P56524 648-1057): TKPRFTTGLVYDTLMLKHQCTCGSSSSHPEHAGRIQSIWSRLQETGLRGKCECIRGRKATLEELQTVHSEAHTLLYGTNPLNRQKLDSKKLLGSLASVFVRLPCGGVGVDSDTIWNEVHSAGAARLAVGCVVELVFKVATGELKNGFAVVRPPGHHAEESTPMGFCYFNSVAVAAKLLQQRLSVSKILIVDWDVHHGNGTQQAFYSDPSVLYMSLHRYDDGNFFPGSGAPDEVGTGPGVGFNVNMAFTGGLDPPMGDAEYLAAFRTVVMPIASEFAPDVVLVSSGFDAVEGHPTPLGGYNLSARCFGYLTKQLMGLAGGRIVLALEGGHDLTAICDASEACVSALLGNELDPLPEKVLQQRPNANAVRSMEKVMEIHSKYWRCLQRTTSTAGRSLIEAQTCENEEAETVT

Cc1ccc(-n2c(SCc3ccc(C(=O)NO)cc3)nc3ccccc3c2=O)cc1 [Compound 5c, N-hydroxy-4-(((4-oxo-3-(p-tolyl)-3,4-dihydroquinazolin-2-yl)thio)methyl)benzamide] was tested. Which “acetylation of H3” value (acetyl-H3) did it give?
Its value is “increase in acetylation of H3, but only at a higher concentration”.

What about the IC50 (HDAC8) of the same molecule?
The IC50 was 2300 ± 500 nM.

And the “apoptosis by acridine orange staining” value (MCF7 and HCT-116 cells)?
The value was “evidential apoptosis”.

What about the “concentration at which heightened acetylation of α-tubulin starts” value (acetyl α-tubulin) of the same molecule?
Its value is 0.1 to 1 µM.

And the “cell population in G2/M phase” value (MCF7 cells [1]; MCF7, 0.1 μM, 48 h)?
The value was “significant increase”.

What about the “cell population in the G1 and S phases” value (MCF7 cells [1]; MCF7, 0.1 μM, 48 h) of the same molecule?
Its value is “slight reduction”.

And the “effect on cells at 1 μM” value (MCF7 cells [1]; MCF7, 1 μM)?
The value was “necrosis and cell death”.

And the “state of cells with increase in concentration” value (MCF7 cells [2])?
Its value is “late apoptosis and necrosis”.

What about the IC50 (HCT116) of the same molecule?
The IC50 was 12400 ± 1410 nM.

And the IC50 (HDAC4)?
Its IC50 is 720 ± 210 nM.
